Values joined by “and” are separate entries in the source; they are usually repeats but may differ in a detail not shown here. Identical values can stand only once. Like-named read-outs stand apart in the source and are kept apart here.
Legend:
MDAMB231 [1] = assay: In vitro antiproliferative assay (MTT assay), breast cancer cell line; assay type: cell-based; conditions: MTT assay, breast cancer MDAMB231, 48 hrs drug incubation
Procedure, shortened: (§1)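 Compound exposure lasted 48 h at 37 °C in 5% CO2, following a 24 h attachment period; DMSO stocks were 0.1 M. Metabolic reduction of MTT (0.5 mg/ml, 4 h), solubilized in DMSO, gave viability, plotted as log % viability versus log drug concentration.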

PC3 [2] = assay: In vitro antiproliferative assay (MTT assay), prostate cancer cell line; assay type: cell-based; conditions: MTT assay, prostate cancer PC3, 48 hrs drug incubation
Procedure, shortened: as §1

MDAMB231 [3] = assay: Soft agar colony-formation assay, breast cancer; assay type: cell-based; conditions: for IC50: Soft Agar Assay, 1 week, Alamar Blue; for anticancer activity in comparison with cisplatin, soft agar, breast cancer cell line: FIG. 51, MDAMB231
Method: (§2) The Soft Agar Colony-formation Assay is an anchorage-independent growth assay in soft agar, which is one of the most stringent assays for detecting malignant transformation of cells. For this assay, malignant cells are cultured with appropriate controls in soft agar medium for 1-2 weeks. Following this incubation period, formed colonies can either be analyzed morphologically using cell stain and quantifying the number of colonies formed.
(§3) Briefly, for Soft Agar Assay a mixture of 50 ul of 2× medium (taken appropriately as per cell line) and 50 ul of 1.2% Bacto Agar were plated on to each well of 96 well micro titer assay plate. 10 ul of cells (of specific plating efficiency pre standardized for respective cell line) were mixed with 20 ul of 2× medium and 30 ul of 0.8% of Bacto Agar and 1.6 ul of drug (of appropriate concentration) in a vial and transferred to the solidified pre layers of the assay plates. The cells were then allowed to grow and form colonies at 37° C. and 5% CO2 for 1 week. An intermittent feeding with 50 ul of appropriate 2× medium was performed after 3 days of experimental set up. 16 ul of Alamar Blue (1.5 mg/ml) was then added to all the wells to quantify the developed colonies. The plates were incubated for 24 hrs at 37° C. Absorbance was then measured at 630 nm. XY graph of log Percent viability was then plotted against log drug concentration.
(§4) Following plating efficiencies were standardized for Soft Agar Assay: […]

PC3 [4] = assay: Soft agar colony-formation assay, prostate cancer; assay type: cell-based; conditions: for IC50: Soft Agar Assay, 1 week, Alamar Blue; for anticancer activity in comparison with cisplatin, soft agar, prostate cancer cell line: FIG. 52, PC3
Method: as §2, §3, §4

MDAMB231 [5] = assay: Wound Healing Assay (WHA), breast cancer cell line; assay type: cell-based; conditions: IC10 conc. of compound
Method: (§5) Wound Healing Assay (WHA) determines the ability of cancer stem cells to heal the wound formed in a confluent monolayer.
(§6) Procedure: 0.35×10^6 cells were plated in each well of 6 Tissue Culture well plates. The plate was incubated for 48 hrs at 37° C., 5% CO2. […] IC10 conc. of the respective compound was added into each well. The plates were incubated at 37° C., 5% CO2 and the width of scratch was measured at various time intervals such as 6, 24 and 48 hours. Average of 3 distances were taken for each time point using IS camera Measure. A plot of average width of scratch in micrometer was plotted against the time interval after treatment.

PC3 [6] = assay: Wound Healing Assay (WHA), prostate cancer cell line; assay type: cell-based; conditions: IC10 conc. of compound
Method: as §5, §6

[7] = tested on: Aldehyde dehydrogenase (ALDH); assay: Aldehyde Dehydrogenase (ALDH) assay, ELISA kit; assay type: cell-based; conditions: MDAMB231, 48 hrs
Text: Aldehyde dehydrogenases (ALDH) are a family of enzymes that catalyze the metabolism of exogenous and endogenous aldehydes, preventing the accumulation of potentially reactive and toxic aldehydes and their metabolites. In addition to their role in aldehyde metabolism, ALDH enzymes also play critical roles in other cellular processes such as cell proliferation, differentiation, and survival. ALDH also serves as a marker for certain stem cell populations including hematopoietic stem cells and certain cancer stem cells. ALDH concentration was determined by using ([…] Dx) ELISA kit by following protocol: • 1 Standards (50 μl)/sample (40 μl) were added to the respective wells, (except Blank). • 2. (10 μl) Antibody-Biotin conjugate was then added in each sample well (except Blank). • 3. (50 μl) of Horse Radish Peroxidase (HRP) Conjugate was then added to each well (except Blank). • 4. The plates were incubated for one hour at 37° C. in the incubator. • 5. Wash (4 times with wash buffer) and blot residual buffer by firmly tapping the plate on the absorbent paper. Wipe off any liquid from the bottom of the microtiter wells as any residue can interfere in the reading step. • 6. Add TMB substrate A (50 μl) and then TMB substrate B (50 μl) to each well including Blank as well. • 7. Incubate for 10 mins at 37° C. in dark. • 8. Add (50 μl) stop solution. Wells should turn from blue to yellow. • 9. Read absorbance at 450 nm. • 10 A X-Y graph of concentration vs optical density was plotted. ALDH concentration was calculated by substituting optical density values in the regression analysis equation.

MDAMB231 [8] = assay: In vitro sphere-forming assay (cancer stem cells), Mammosphere media; conditions: for 3D sphere count of MDAMB231: Mammosphere media, 2000 cells/well, n = 6 ± S.D; for viability at 0.0025 µM / viability at 0.025 µM / viability at 0.25 µM / viability at 2.5 µM / viability at 25 µM: Homo sapiens, MDA-MB-231, read-out: % Viability of spheres (MDAMB231)
Human lymphocytes = assay: Lymphocyte assay (MTT on normal cells); assay type: cell-based; conditions: human peripheral blood lymphocytes, MTT procedure
Method: Human lymphocytes were isolated from the peripheral blood. A pure population of lymphocytes was obtained based on differential centrifugation, in which diluted defibrinated blood was layered on a solution of sodium diatrizoate and polysucrose (HiSep LSM 1077) and centrifuged at low speeds for 30 mins.
Procedure: The separation of lymphocytes from fresh defibrinated blood was performed by the procedure described below: • 1. Diluted defibrinated fresh blood was overlaid gradually on (HiSeP LSM1077) and centrifuged at low speed for 30 mins. • 2. The lymphocyte layer (the buffy coat) was carefully removed in a new collection tube. • 3. The buffy coat was given another wash, by the diluent buffer Dulbecco's phosphate buffered saline (D.P.B.S) • 4. The supernatant was discarded and the pellet was resuspended in D.P.B.S. • 5. The viability of cells was checked by Haemocytometer. • 6. Cells with purity and viability of more than 95% were taken for the experiment. • 7. Purified lymphocytes were diluted at a concentration of 0.7 million/ml with sterile D.P.B.S and MTT procedure was performed exactly as described earlier.

PC3 [9] = assay: In vitro sphere-forming assay (cancer stem cells), Prostosphere media; conditions: for viability at 0.0025 µM / viability at 0.025 µM / viability at 0.25 µM / viability at 2.5 µM / viability at 25 µM: Homo sapiens, PC-3, read-out: % Viability of spheres (PC3); for 3D sphere count of PC3: Prostosphere media, 2000 cells/well, n = 6 ± S.D
MDAMB231 [10] = conditions: human, 216 h
PC3 [11] = conditions: human, 216 h
[12] = Homo sapiens, MDA-MB-231, 168 h

IC50 (PC3 [2]) [µM] | IC50 (MDAMB231 [1]; Homo sapiens, MDA-MB-231, 48 h) [µM] | IC50 (MDAMB231 [3]; [12]) [µM] | IC50 (PC3 [4]; Homo sapiens, PC-3, 168 h) [µM] | Structure (SMILES) | IC50 (MDAMB231 [1]) [µM] | % inhibition of Wound Healing for Breast Cancer Cell line (MDAMB231) after 48 hrs (MDAMB231 [5]) [%] | % inhibition of Wound Healing for Prostate Cancer Cell line (PC3) after 48 hrs (PC3 [6]) [%] | anticancer activity in comparison with cisplatin, soft agar, breast cancer cell line (MDAMB231 [3]) | anticancer activity in comparison with cisplatin, soft agar, prostate cancer cell line (PC3 [4]) | viability at 0.0025 µM (MDAMB231 [8]) [%] | 3D sphere count of MDAMB231 (MDAMB231 [8]; drug 0.0025 uM) | 3D sphere count of MDAMB231 (MDAMB231 [8]; drug 0.025 uM) | 3D sphere count of MDAMB231 (MDAMB231 [8]; drug 0.25 uM) | 3D sphere count of MDAMB231 (MDAMB231 [8]; drug 2.5 uM) | 3D sphere count of MDAMB231 (MDAMB231 [8]; drug 25 uM) | 3D sphere count of PC3 (PC3 [9]; drug 0.0025 uM) | 3D sphere count of PC3 (PC3 [9]; drug 0.025 uM) | 3D sphere count of PC3 (PC3 [9]; drug 0.25 uM) | 3D sphere count of PC3 (PC3 [9]; drug 2.5 uM) | 3D sphere count of PC3 (PC3 [9]; drug 25 uM) | also measured
0.5 | 1.01 | 0.662 | 0.415 | COc1ccc(OC2=CC(=O)c3c(OCCN4CCOCC4)cccc3C2=O)cc1 [Formula 43, 5-(2-morpholinoethoxy)-2-(4-methoxyphenoxy) naphthalene-1,4-dione] |  | 53.3 | 50.47 | higher anticancer activity in comparison with cisplatin | higher anticancer activity in comparison with cisplatin | 82 | 82(±4) | 61(±3) | 46(±3) | 33(±4) | 21(±3) | 75(±4) | 57(±5) | 46(±4) | 30(±4) | 21(±3) | IC50 (Human lymphocytes; Lymphocyte): 10.8 µM; viability at 0.025 µM (MDAMB231 [8]): 61%; viability at 0.25 µM (MDAMB231 [8]): 46%; viability at 2.5 µM (MDAMB231 [8]): 33%; viability at 25 µM (MDAMB231 [8]): 21%; viability at 0.0025 µM (PC3 [9]): 75%; viability at 0.025 µM (PC3 [9]): 57%; viability at 0.25 µM (PC3 [9]): 46%; viability at 2.5 µM (PC3 [9]): 30%; viability at 25 µM (PC3 [9]): 21%
 | 2.18 | 3.77 | 2.68 | O=C1C=C(N2CCOCC2)C(=O)c2c(OCCN3CCOCC3)cccc21 [Formula 73] |  |  |  | higher anticancer activity in comparison with cisplatin | higher anticancer activity in comparison with cisplatin | 87 | 62(±4) | 50(±3) | 36(±4) | 25(±3) | 14(±3) | 69(±2) | 55(±3) | 40(±3) | 29(±3) | 19(±3) | IC50 (PC3 [2]; Homo sapiens, PC-3, 48 h): 3.05 µM; Activity on Lymphocytes (IC50) (Human lymphocytes): No activity; viability at 0.025 µM (MDAMB231 [8]): 70%; viability at 0.25 µM (MDAMB231 [8]): 50%; viability at 2.5 µM (MDAMB231 [8]): 35%; viability at 25 µM (MDAMB231 [8]): 19%; viability at 0.0025 µM (PC3 [9]): 86%; viability at 0.025 µM (PC3 [9]): 68%; viability at 0.25 µM (PC3 [9]): 50%; viability at 2.5 µM (PC3 [9]): 36%; viability at 25 µM (PC3 [9]): 23%
2.19 |  |  |  | COc1ccc(OC2=CC(=O)c3c(OCCN4CCOCC4)cccc3C2=O)cc1 [Formula 81] | 0.631 |  |  |  |  |  | 82(±4) | 61(±3) | 46(±3) | 33(±4) | 21(±3) | 75(±4) | 57(±5) | 46(±4) | 30(±4) | 21(±3) | % Viability of spheres (MDAMB231) (MDAMB231 [10]; 0.0025 uM): 82(±4) %; % Viability of spheres (MDAMB231) (MDAMB231 [10]; 0.025 uM): 61(±3) %; % Viability of spheres (MDAMB231) (MDAMB231 [10]; 0.25 uM): 46(±3) %; % Viability of spheres (MDAMB231) (MDAMB231 [10]; 2.5 uM): 33(±4) %; % Viability of spheres (MDAMB231) (MDAMB231 [10]; 25 uM): 21(±3) %; % Viability of spheres (PC3) (PC3 [11]; 0.0025 uM): 75(±4) %; % Viability of spheres (PC3) (PC3 [11]; 0.025 uM): 57(±5) %; % Viability of spheres (PC3) (PC3 [11]; 0.25 uM): 46(±4) %; % Viability of spheres (PC3) (PC3 [11]; 2.5 uM): 30(±4) %; % Viability of spheres (PC3) (PC3 [11]; 25 uM): 21(±3) %

Structure (SMILES) | IC50 (PC3 [2]) [µM] | IC50 (MDAMB231 [1]; Homo sapiens, MDA-MB-231, 48 h) [µM] | IC50 (MDAMB231 [3]; [12]) [µM] | IC50 (PC3 [4]; Homo sapiens, PC-3, 168 h) [µM] | IC50 (MDAMB231 [1]) [µM] | % inhibition of Wound Healing for Breast Cancer Cell line (MDAMB231) after 48 hrs (MDAMB231 [5]) [%] | % inhibition of Wound Healing for Prostate Cancer Cell line (PC3) after 48 hrs (PC3 [6]) [%] | anticancer activity in comparison with cisplatin, soft agar, breast cancer cell line (MDAMB231 [3]) | anticancer activity in comparison with cisplatin, soft agar, prostate cancer cell line (PC3 [4]) | viability at 0.0025 µM (MDAMB231 [8]) [%] | 3D sphere count of MDAMB231 (MDAMB231 [8]; drug 0.0025 uM) | 3D sphere count of MDAMB231 (MDAMB231 [8]; drug 0.025 uM) | 3D sphere count of MDAMB231 (MDAMB231 [8]; drug 0.25 uM) | 3D sphere count of MDAMB231 (MDAMB231 [8]; drug 2.5 uM) | 3D sphere count of MDAMB231 (MDAMB231 [8]; drug 25 uM) | 3D sphere count of PC3 (PC3 [9]; drug 0.0025 uM) | 3D sphere count of PC3 (PC3 [9]; drug 0.025 uM) | 3D sphere count of PC3 (PC3 [9]; drug 0.25 uM) | 3D sphere count of PC3 (PC3 [9]; drug 2.5 uM) | 3D sphere count of PC3 (PC3 [9]; drug 25 uM) | also measured
N.N.[Cl][Pt][Cl] [Cisplatin, reference compound] | 35.9 |  |  |  | 31 | 33.78 | 25.13 |  |  |  |  |  |  |  |  |  |  |  |  |  | IC50 (MDAMB231 [3]): 35.2 µM; IC50 (PC3 [4]): 34.4 µM; % inhibition of ALDH on Breast Cancer Cell line (MDAMB231) after 48 hrs [7]: 26.45%; 3D sphere count of MDAMB231 (MDAMB231 [8]; drug 250 uM): 28(±3) and 26(±3)

Source: patent US20240018132A1, “5-HYDROXY-1,4-NAPHTHALENEDIONE FOR USE IN THE TREATMENT OF CANCER” (GODAVARI BIOREFINERIES LIMITED, priority 2020, published 2024)
